Data reported in US8546565B2, “Quinazolinamide derivatives” (Merck Patent Gesellschaft, priority 2008, dated 2013).

biological target: T1, Recombinant human HSP90a (Homo sapiens, UniProt P07900); experiment: HSP90 radioligand filter binding test ([3H]17AAG competition); conditions: [3H]17AAG 0.08 μM, HSP90 1.5 μg/assay, 22° C., 30 min; read-out: IC50 (HSP90 inhibition)
T1 construct: host or cells: E. coli
Source text: Test Method for the Measurement of HSP90 Inhibitors
The binding of geldanamycin or 17-allylamino-17-demethoxygeldanamycin (17AAG) to HSP90 and competitive inhibition thereof can be utilised in order to determine the inhibitory activity of the compounds according to the invention (Carreras et al. 2003, Chiosis et al. 2002).
In the specific case, a radioligand filter binding test is used. The radioligand used here is tritium-labelled 17-allylaminogeldanamycin, [3H]17AAG. This filter binding test allows a targeted search for inhibitors which interfere with the ATP binding site.
Recombinant human HSP90a (E. coli expressed, 95% purity);
[3H]17AAG (17-allylaminogeldanamycin, [allylamino-2,3-^3H. Specific activity: 1.11×10^12 Bq/mmol (Moravek, MT-1717);
HEPES filter buffer (50 mM HEPES, pH 7.0, 5 mM MgCl2, BSA 0.01%)
Multiscreen FB (1 μm) filter plate (Millipore, MAFBNOB 50).
The 96-well microtitre filter plates are firstly irrigated and coated with 0.1% of polyethylenimine.
The test is carried out under the following conditions:
Reaction temperature 22° C.
Reaction time: 30 min., shaking at 800 rpm
50 mM HEPES HCl, pH 7.0, 5 mM MgCl2, 0.01% (w/v) of BSA
At the end of the reaction, the supernatant in the filter plate is removed by suction with the aid of a vacuum manifold (Multiscreen Separation System, Millipore), and the filter is washed twice.
The filter plates are then measured in a beta counter (Microbeta, Wallac) with scintillator (Microscint 20, Packard).
“% of control” is determined from the “counts per minutes” values, and the IC-50 value of a compound is calculated therefrom.

IC50, 0.01 to 1 µM:
Nc1nc(C(=O)N2Cc3ccccc3C2)c2cc(-c3ccccc3S(=O)(=O)N3CCC(F)(F)C3)ccc2n1 [Compound A53, {2-Amino-6-[2-(3,3-difluoropyrrolidine-1-sulfonyl)phenyl]quinazolin-4-yl}-(1,3-dihydroisoindol-2-yl)methanone]
Nc1nc(C(=O)N2Cc3ccccc3C2)c2cc(-c3ccccc3C(=O)N3CCC3)ccc2n1 [Compound A54]
CCN(CCN(C)C)C(=O)c1ccccc1-c1ccc2nc(N)nc(C(=O)N3Cc4ccccc4C3)c2c1 [Compound A55]
CN(C(=O)c1ccccc1-c1ccc2nc(N)nc(C(=O)N3Cc4ccccc4C3)c2c1)C(C)(C)C [Compound A56, 2-[2-Amino-4-(1,3-dihydroisoindole-2-carbonyl)quinazolin-6-yl]-N-tert-butyl-N-methylbenzamide]
CC1CCC(C)N1C(=O)c1ccccc1-c1ccc2nc(N)nc(C(=O)N3Cc4ccccc4C3)c2c1 (stereo not shown) [Compound A57]
CNC(=O)C1CCCN1S(=O)(=O)c1ccccc1-c1ccc2nc(N)nc(C(=O)N3Cc4ccccc4C3)c2c1 (stereo not shown) [Compound A58, 1-{2-[2-amino-4-(1,3-dihydroisoindole-2-carbonyl)quinazolin-6-yl]benzenesulfonyl}pyrrolidine-2-methylamide]
CN(C(C)(C)C)S(=O)(=O)c1ccccc1-c1ccc2nc(N)nc(C(=O)N3Cc4ccccc4C3)c2c1 [Compound A59, 2-[2-Amino-4-(1,3-dihydroisoindole-2-carbonyl)quinazolin-6-yl]-N-tert-butyl-N-methylbenzenesulfonamide]
Nc1nc(C(=O)N2Cc3ccccc3C2)c2cc(-c3ccccc3S(=O)(=O)N3CC(F)(F)C3)ccc2n1 [Compound A60]
Nc1nc(C(=O)N2Cc3ccccc3C2)c2cc(-c3ccccc3S(=O)(=O)N3CCCC3C(=O)NCCO)ccc2n1 (stereo not shown) [Compound A61, N-(2-hydroxyethyl)-1-{2-[2-amino-4-(1,3-dihydroisoindole-2-carbonyl)quinazolin-6-yl]benzenesulfonyl}pyrrolidine-2-carboxamide]
Nc1nc(C(=O)N2Cc3ccccc3C2)c2cc(-c3ccccc3C(=O)N3CC[C@H](F)C3)ccc2n1 [Compound A62]
C[C@@H]1CCCN1C(=O)c1ccccc1-c1ccc2nc(N)nc(C(=O)N3Cc4ccccc4C3)c2c1 [Compound A63]
CC1CCC(C)N1S(=O)(=O)c1ccccc1-c1ccc2nc(N)nc(C(=O)N3Cc4ccccc4C3)c2c1 (stereo not shown) [Compound A64, {2-amino-6-[2-(2,5-dimethylpyrrolidine-1-sulfonyl)phenyl]-quinazolin-4-yl}-(1,3-dihydroisoindol-2-yl)methanone]
CN(C1CC1)S(=O)(=O)c1ccccc1-c1ccc2nc(N)nc(C(=O)N3Cc4ccccc4C3)c2c1 [Compound A65, 2-[2-amino-4-(1,3-dihydroisoindole-2-carbonyl)quinazolin-6-yl]-N-cyclopropyl-N-methylbenzenesulfonamide]
C[C@@H]1CCCN1S(=O)(=O)c1ccccc1-c1ccc2nc(N)nc(C(=O)N3Cc4ccccc4C3)c2c1 [Compound A66, {2-Amino-6-[2-((R)-2-methylpyrrolidine-1-sulfonyl)phenyl]quinazolin-4-yl}-(1,3-dihydroisoindol-2-yl)methanone]
Nc1nc(C(=O)N2Cc3ccccc3C2)c2cc(-c3ccccc3S(=O)(=O)N3CC[C@H](F)C3)ccc2n1 [Compound A67, {2-Amino-6-[2-((S)-3-fluoropyrrolidine-1-sulfonyl)phenyl]quinazolin-4-yl}-(1,3-dihydroisoindol-2-yl)methanone]
CN(C1CNC1)S(=O)(=O)c1ccccc1-c1ccc2nc(N)nc(C(=O)N3Cc4ccccc4C3)c2c1 [Compound A68]
